Each compound was assayed against recombinant Mcl-1 (residues 172-327) (Homo sapiens (Human), UniProt Q07820) (assay: Fluorescence polarization anisotropy competition assay (FITC-Bak or FITC-Bim BH3 peptide) with Mcl-1). Settings: Table 2; Ki bins given in nM; FITC-Bak or FITC-Bim peptide competition; Ki converted from IC50; read-out: Ki for Inhibition of Mcl-1.
Type: binding

recombinant Mcl-1 (residues 172-327), sequence (Q07820 172-327): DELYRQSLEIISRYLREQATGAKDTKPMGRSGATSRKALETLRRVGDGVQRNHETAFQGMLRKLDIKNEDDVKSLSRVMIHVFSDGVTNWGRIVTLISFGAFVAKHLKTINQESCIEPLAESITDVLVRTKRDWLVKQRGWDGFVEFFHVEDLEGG

Row | SMILES | Ki
1 | Cc1cc(OCCCc2c3n(c4c(-c5c(C)nn(C)c5C)c(Cl)ccc24)CCCN(c2ccc(C(=O)O)c(C(F)(F)F)c2)C3=O)cc(C)c1Cl [I-93, 4-(8-chloro-11-(3-(4-chloro-3,5-dimethylphenoxy)propyl)-1-oxo-7-(1,3,5-trimethyl-1H-pyrazol-4-yl)-4,5-dihydro-1H-[1,4]diazepino[1,2-a]indol-2(3H)-yl)-2-(trifluoromethyl)benzoic acid] | < 50 nM
2 | Cc1cc(OCCCc2c(C(=O)N3CCN(c4ccc(C(=O)O)cc4)CC3)[nH]c3c(-c4c(C)nn(C)c4C)c(Cl)ccc23)cc(C)c1Cl [I-335, 4-(4-(6-chloro-3-(3-(4-chloro-3,5-dimethylphenoxy)propyl)-7-(1,3,5-trimethyl-1H-pyrazol-4-yl)-1H-indole-2-carbonyl)piperazin-1-yl)benzoic acid] | < 50 nM
3 | Cc1cc(OCCCc2c(C(=O)Nc3cccc(C(=O)O)c3)[nH]c3c(-c4c(C)nn(CCN5CCOCC5)c4C)c(Cl)ccc23)cc(C)c1Cl [I-191, 3-(6-chloro-3-(3-(4-chloro-3,5-dimethylphenoxy)propyl)-7-(3,5-dimethyl-1-(2-morpholinoethyl)-1H-pyrazol-4-yl)-1H-indole-2-carboxamido)benzoic acid] | < 50 nM
4 | Cc1cc(OCCCc2c3n(c4c(-c5c(C)nn(C)c5C)c(Cl)ccc24)CC(C)CN(Cc2ccc(C(=O)O)cn2)C3=O)cc(C)c1Cl (stereo not drawn) [I-134, 6-((8-chloro-11-(3-(4-chloro-3,5-dimethylphenoxy)propyl)-4-methyl-1-oxo-7-(1,3,5-trimethyl-1H-pyrazol-4-yl)-4,5-dihydro-1H-[1,4]diazepino[1,2-a]indol-2(3H)-yl)methyl)nicotinic acid] | < 50 nM
5 | Cc1cc(OCCCc2c3n(c4c(-c5c(C)nn(C)c5C)c(Cl)ccc24)CCCN(c2nn(C)c4cc(C(=O)O)ccc24)C3=O)cc(C)c1Cl [I-375, 3-(8-chloro-11-(3-(4-chloro-3,5-dimethylphenoxy)propyl)-1-oxo-7-(1,3,5-trimethyl-1H-pyrazol-4-yl)-4,5-dihydro-1H-[1,4]diazepino[1,2-a]indol-2(3H)-yl)-1-methyl-1H-indazole-6-carboxylic acid] | < 50 nM
6 | CCOC(=O)c1ccc(CNC(=O)c2c(CCCOc3cc(C)c(Cl)c(C)c3)c3cccc(-c4c(C)nn(C)c4C)c3n2C)o1 [I-65, ethyl 5-((3-(3-(4-chloro-3,5-dimethylphenoxy)propyl)-1-methyl-7-(1,3,5-trimethyl-1H-pyrazol-4-yl)-1H-indole-2-carboxamido)methyl)furan-2-carboxylate] | 301 to 500 nM
7 | Cc1cc(OCCCc2c3n(c4c(-c5c(C)nn(C)c5C)c(Cl)ccc24)C(C)CN(Cc2ccc(C(=O)O)o2)C3=O)cc(C)c1Cl (stereo not drawn) [I-128, 5-((7-chloro-10-(3-(4-chloro-3,5-dimethylphenoxy)propyl)-4-methyl-1-oxo-6-(1,3,5-trimethyl-1H-pyrazol-4-yl)-3,4-dihydropyrazino[1,2-a]indol-2(1H)-yl)methyl)furan-2-carboxylic acid] | < 50 nM
8 | Cc1cc(OCCCc2c3n(c4c(-c5c(C)nn(C)c5C)c(Cl)ccc24)CCCN(c2cc(C(=O)O)cc(N(C)C)c2)C3=O)cc(C)c1Cl [I-216, 3-(8-chloro-11-(3-(4-chloro-3,5-dimethylphenoxy)propyl)-1-oxo-7-(1,3,5-trimethyl-1H-pyrazol-4-yl)-4,5-dihydro-1H-[1,4]diazepino[1,2-a]indol-2(3H)-yl)-5-(dimethylamino)benzoic acid] | < 50 nM
9 | Cc1cc(OCCCc2c(C(=O)NCc3cccc(C(=O)NS(=O)(=O)c4ccccc4C#N)c3)[nH]c3c(-c4c(CN5CCCC5)nn(C)c4C)cccc23)cc(C)c1Cl [I-35, 3-(3-(4-chloro-3,5-dimethylphenoxy)propyl)-N-(3-(((2-cyanophenyl)sulfonyl)carbamoyl)benzyl)-7-(1,5-dimethyl-3-(pyrrolidin-1-ylmethyl)-1H-pyrazol-4-yl)-1H-indole-2-carboxamide] | < 50 nM
10 | Cc1cc(OCCCc2c(C(=O)NCc3ccc(N4CCCC4)c(C(=O)O)c3)[nH]c3c(-c4c(C)nn(C)c4C)cccc23)cc(C)c1Cl [I-76, 5-((3-(3-(4-chloro-3,5-dimethylphenoxy)propyl)-7-(1,3,5-trimethyl-1H-pyrazol-4-yl)-1H-indole-2-carboxamido)methyl)-2-(pyrrolidin-1-yl)benzoic acid] | 51 to 100 nM
11 | Cc1cc(OCCCc2c(C(=O)NCCS(=O)(=O)NC(=O)C34CC5CC(CC(C5)C3)C4)[nH]c3ccccc23)cc(C)c1Cl [I-55, N-(2-(N-((3r,5r,7r)-adamantane-1-carbonyl)sulfamoyl)ethyl)-3-(3-(4-chloro-3,5-dimethylphenoxy)propyl)-1H-indole-2-carboxamide] | 301 to 500 nM
12 | Cc1cc(OCCCc2c3n(c4c(-c5c(C)nn(C)c5C)c(Cl)ccc24)C[C@@H](C)N(c2cc(C(=O)O)c4ccn(C)c4c2)C3=O)cc(C)c1Cl [I-160, (R)-6-(7-chloro-10-(3-(4-chloro-3,5-dimethylphenoxy)propyl)-3-methyl-1-oxo-6-(1,3,5-trimethyl-1H-pyrazol-4-yl)-3,4-dihydropyrazino[1,2-a]indol-2(1H)-yl)-1-methyl-1H-indole-4-carboxylic acid] | < 50 nM
13 | Cc1cc(OCCCc2c3n(c4c(-c5c(C)nn(C)c5C)cccc24)CCCN(Cc2ccc(C(=O)O)cc2)C3=O)cc(C)c1Cl [I-83, 4-((11-(3-(4-chloro-3,5-dimethylphenoxy)propyl)-1-oxo-7-(1,3,5-trimethyl-1H-pyrazol-4-yl)-4,5-dihydro-1H-[1,4]diazepino[1,2-a]indol-2(3H)-yl)methyl)benzoic acid] | < 50 nM
14 | Cc1cc(OCCCc2c(C(=O)NCC(=O)NS(=O)(=O)c3ccc4ccccc4c3)[nH]c3ccccc23)cc(C)c1Cl [I-7, 3-(3-(4-chloro-3,5-dimethylphenoxy)propyl)-N-(2-(naphthalene-2-sulfonamido)-2-oxoethyl)-1H-indole-2-carboxamide] | 101 to 299 nM

Next, values leading:

Row | Ki | SMILES
15 | < 50 nM | Cc1ccc(C(=O)O)cc1N1CCCn2c(c(CCCOc3cc(C)c(Cl)c(C)c3)c3ccc(Cl)c(-c4c(C)nn(C)c4C)c32)C1=O [I-100, 3-(8-chloro-11-(3-(4-chloro-3,5-dimethylphenoxy)propyl)-1-oxo-7-(1,3,5-trimethyl-1H-pyrazol-4-yl)-4,5-dihydro-1H-[1,4]diazepino[1,2-a]indol-2(3H)-yl)-4-methylbenzoic acid]
16 | < 50 nM | Cc1cc(OCCCc2c(C(=O)N[C@@H]3CCN(C(=O)C(=O)O)C3)[nH]c3c(-c4c(C)nn(C)c4C)c(Cl)ccc23)cc(C)c1Cl [I-326, (R)-2-(3-(6-chloro-3-(3-(4-chloro-3,5-dimethylphenoxy)propyl)-7-(1,3,5-trimethyl-1H-pyrazol-4-yl)-1H-indole-2-carboxamido)pyrrolidin-1-yl)-2-oxoacetic acid]
17 | < 50 nM | Cc1cc(OCCCc2c3n(c4c(-c5c(C)nn(C)c5C)c(Cl)ccc24)CCC(C)N(Cc2ccc(C(=O)O)o2)C3=O)cc(C)c1Cl (stereo not drawn) [I-126, 5-((8-chloro-1-(3-(4-chloro-3,5-dimethylphenoxy)propyl)-3-methyl-1-oxo-7-(1,3,5-trimethyl-1H-pyrazol-4-yl)-4,5-dihydro-1H-[1,4]diazepino[1,2-a]indol-2(3H)-yl)methyl)furan-2-carboxylic acid]
18 | < 50 nM | Cc1cc(OCCCc2c3n(c4c(-c5c(C)nn(C)c5C)c(Cl)ccc24)CCCN(c2cc(CO)cc(C(=O)O)c2)C3=O)cc(C)c1Cl [I-224, 3-(8-chloro-11-(3-(4-chloro-3,5-dimethylphenoxy)propyl)-1-oxo-7-(1,3,5-trimethyl-1H-pyrazol-4-yl)-4,5-dihydro-1H-[1,4]diazepino[1,2-a]indol-2(3H)-yl)-5-(hydroxymethyl)benzoic acid]
19 | < 50 nM | Cc1cc(OCCCc2c3n(c4c(-c5c(C)nn(C)c5C)c(Cl)ccc24)C(C)[C@@H](C)N(Cc2cccc(C(=O)O)c2)C3=O)cc(C)c1Cl (stereo partly drawn) [I-145, 3-(((3R)-7-chloro-10-(3-(4-chloro-3,5-dimethylphenoxy)propyl)-3,4-dimethyl-1-oxo-6-(1,3,5-trimethyl-1H-pyrazol-4-yl)-3,4-dihydropyrazino[1,2-a]indol-2(1H)-yl)methyl)benzoic acid]
20 | < 50 nM | Cc1nn(C)c(C)c1-c1cccc2c(CCCOc3cccc4ccccc34)c(C(=O)Nc3cccc(C(=O)O)c3)[nH]c12 [I-193, 3-(3-(3-(naphthalen-1-yloxy)propyl)-7-(1,3,5-trimethyl-1H-pyrazol-4-yl)-1H-indole-2-carboxamido)benzoic acid]
21 | < 50 nM | Cc1cc(OCCCc2c3n(c4c(-c5c(C)nn(C)c5C)c(Cl)ccc24)[C@@H](C)CN(c2ccc(C(=O)O)c4ncccc24)C3=O)cc(C)c1Cl [I-168, (S)-5-(7-chloro-10-(3-(4-chloro-3,5-dimethylphenoxy)propyl)-4-methyl-1-oxo-6-(1,3,5-trimethyl-1H-pyrazol-4-yl)-3,4-dihydropyrazino[1,2-a]indol-2(1H)-yl)quinoline-8-carboxylic acid]

Same assay, conditions: Table 2; Ki bins given in μM; FITC-Bak or FITC-Bim peptide competition; Ki converted from IC50; read-out: Ki for Inhibition of Mcl-1

Row | SMILES | Ki
22 | Cc1cc(OCCCc2c(C(=O)NCCc3c(C)n(C)c4ccccc34)[nH]c3ccccc23)cc(C)c1Cl [I-44, 3-(3-(4-chloro-3,5-dimethylphenoxy)propyl)-N-(2-(1,2-dimethyl-1H-indol-3-yl)ethyl)-1H-indole-2-carboxamide] | 1000 to 9990 nM
23 | COC(=O)[C@H](CC(C)C)NC(=O)CNC(=O)c1[nH]c2c(-c3c(C)nn(C)c3C)cccc2c1CCCOc1cc(C)c(Cl)c(C)c1 [I-289, methyl (3-(3-(4-chloro-3,5-dimethylphenoxy)propyl)-7-(1,3,5-trimethyl-1H-pyrazol-4-yl)-1H-indole-2-carbonyl)glycyl-L-leucinate] | 10000 to 50000 nM
24 | Cc1cc(OCCCc2c(C(=O)NCc3cccc(OC(F)(F)F)c3)[nH]c3c(-c4c(C)nn(C)c4C)cccc23)cc(C)c1Cl [I-264, 3-(3-(4-chloro-3,5-dimethylphenoxy)propyl)-N-(3-(trifluoromethoxy)benzyl)-7-(1,3,5-trimethyl-1H-pyrazol-4-yl)-1H-indole-2-carboxamide] | 1000 to 9990 nM
